# Reference: article PMC9147789, “Development and Validation of a Novel LC-MS/MS Method for the Simultaneous Determination of Abemaciclib, Palbociclib, Ribociclib, Anastrozole, Letrozole, and Fulvestrant in Plasma Samples: A Prerequisite for Personalized Breast Cancer Treatment” (Pharmaceuticals, 2022)
# What was measured:
# [1] = LC-MS/MS quantitation of drugs in single-point patient plasma samples (therapeutic drug monitoring); type: in vivo, human; conditions: for concentration at 1 h: patient 4; for concentration at 27 day: sampling day 27 (off-treatment week)
# Description: Samples from ten women (ages 35 to 78, median 50.5 years) receiving regular treatment with a combination of a CDK4/6 inhibitor (PAL, RIB or ABE) and endocrine therapy (ANA, LET, FUL or exemestane, EXE) were obtained and analyzed using this LC-MS method. The samples were mostly taken in the elimination phase, during the patients’ regular visit to the hospital before the next dose administration, except in the case of patient 4 (sampling 1 h after dose administration). The aromatase inhibitors and ABE are continuously administered as single daily doses, FUL is a once-monthly intramuscular injection, and the dosing regimen of PAL and RIB involves a week off treatment every 21 days to minimize treatment-induced neutropenia.
# The samples were analyzed against freshly prepared calibration curves. The results are listed in Table 7, while the accompanying chromatograms and mass spectra are included in the Supplementary Materials, Section 1, Figures S1–S29.
# Healthy and patient blood samples were collected and pre-treated at the University Hospital Centre Zagreb, with signed informed consent. Patients receiving a combination of a CDK4/6 inhibitor and endocrine therapy as regular treatment for at least 4 months were enrolled.
# Whole blood was collected in containers with K2-EDTA anticoagulant and centrifuged for 10 min at 1500 g; the supernatant was then withdrawn and stored at −18 °C (blank plasma) or −80 °C (patients’ plasma). Hemolyzed plasma was obtained by briefly freezing a whole blood sample at −18 °C before continuing with the procedure.
# (§1) Calibration and QC samples were prepared by diluting 5 µL of the appropriate working solutions of the analytes with 45 µL of blank plasma in 1.5 mL polypropylene centrifuge tubes. In case of patient sample analysis, an aliquot of 50 µL of patient plasma was used. Proteins were precipitated by adding 200 µL of ACN, after which the samples were vortex-mixed for 10 s and centrifuged at 2000 g for 5 min. The resulting supernatant was collected and 200 µL was evaporated to dryness in a vacuum evaporator at room temperature. The dry residue was dissolved in 40 µL of 65% methanol, while 5 µL was injected into the chromatographic system.
# [2] = Stability of the analytes in plasma (bench top, autosampler, freeze-thaw, long-term); type: physicochemical, human; conditions: for Stability Bias (%) 1 FT Cycle (30 min, −18–25 °C) / Stability Bias (%) 2 FT Cycles (30 min, −18–25 °C) / Stability Bias (%) 3 FT Cycles (30 min, −18–25 °C) / Stability Bias (%) Long-Term (2 Weeks, −18 °C): plasma; for Stability Bias (%) 1 FT Cycle (30 min, −18–25 °C) / Stability Bias (%) 2 FT Cycles (30 min, −18–25 °C) / Stability Bias (%) 3 FT Cycles (30 min, −18–25 °C) / Stability Bias (%) Long-Term (2 Weeks, −18 °C) / Stability Bias (%) Autosampler (10 h, 10 °C): N = 3; for Stability Bias (%) Autosampler (10 h, 10 °C): processed plasma sample; for Stability Bias (%) Bench Top (2 h, 25 °C): unprocessed plasma, N = 3, vs fresh QC
# Description: Stability of the stock and working solutions was determined in the preliminary studies. […] Patient plasma samples were stored long-term at −80 °C. Since adequate stability of plasma samples was proven at −18 °C, it was deemed acceptable at lower temperatures as well. Lower- and higher-concentration QC samples were prepared in triplicate for each condition and time point and were analyzed against QC samples freshly prepared in triplicate.
# [3] = plasma; cited from earlier work
# [4] = parameters: method as in PMID 28540640; conditions: plasma; reported PK/PD studies; cited from earlier work
# [5] = Clinical pharmacokinetic evaluation of RIB in one patient, first day of a treatment cycle, non-compartmental analysis; type: in vivo, human; conditions: 600 mg oral dose
# Description: Finally, we applied our fully validated method to evaluate the pharmacokinetic disposition of RIB in a patient during the first day of a treatment cycle. The plasma samples were prepared in the same manner as the single-point study samples and quantitated using a freshly prepared calibration curve. No additional dilution or preconcentration was necessary, as all the determined concentrations fell within the validated range. The corresponding data are available in Table S1 of the Supplementary Materials, Section 2 (Results of the pharmacokinetic study).
# Pharmacokinetic data were analyzed with the PK solver Excel extension, using the linear trapezoidal model for non-compartmental analysis of plasma data after extravascular input. […] The beginning of the elimination phase was estimated around three hours after dosing. Ribociclib is administered as an instant release tablet dosage form, so no absorption lag was neither expected nor observed.
# as §1
# [6] = higher QC level (RIB 2500, ABE 1500, PAL 250, ANA 100, LET 250, FUL 500 ng/mL)
# [7] = lower QC level (RIB 62.5, ABE 37.5, PAL 6.2, ANA 2.5, LET 6.25, FUL 12.5 ng/mL)
"Stability Bias (%) 1 FT Cycle (30 min, −18–25 °C) [2, 6] [%]","Stability Bias (%) 2 FT Cycles (30 min, −18–25 °C) [2, 6] [%]","Stability Bias (%) 3 FT Cycles (30 min, −18–25 °C) [2, 6] [%]","Stability Bias (%) Long-Term (2 Weeks, −18 °C) [2, 6] [%]","Stability Bias (%) 1 FT Cycle (30 min, −18–25 °C) [2, 7] [%]","Stability Bias (%) 2 FT Cycles (30 min, −18–25 °C) [2, 7] [%]","Stability Bias (%) 3 FT Cycles (30 min, −18–25 °C) [2, 7] [%]","Stability Bias (%) Long-Term (2 Weeks, −18 °C) [2, 7] [%]","Stability Bias (%) Autosampler (10 h, 10 °C) [2, 6] [%]","Stability Bias (%) Autosampler (10 h, 10 °C) [2, 7] [%]","Stability Bias (%) Bench Top (2 h, 25 °C) [2, 6] [%]","Stability Bias (%) Bench Top (2 h, 25 °C) [2, 7] [%]",Structure (SMILES),Expected literature range Cmin–Cmax [3],other results
2.07,−0.26,−7.61,−7.75,−0.06,−6.52,−3.50,−10.44,−0.29,6.11,6.16,−6.81,"N#Cc1ccc(C(c2ccc(C#N)cc2)n2cncn2)cc1 [LET, letrozole]",28.4–349.2 [28] ng/mL,"concentration at 1 h ([1]; human, plasma, LET 2.5 mg daily, 1 h after dose administration): 0.139 µg/mL; Plasma Concentration ([1]; patient 1, LET 2.5 mg daily): 0.10999 µg/mL; Plasma Concentration ([1]; patient 2, LET 2.5 mg daily): 0.14111 µg/mL; Plasma Concentration ([1]; patient 3, LET 2.5 mg daily): 0.14621 µg/mL"
9.37,5.68,1.13,3.09,13.23,−7.43,14.07,7.60,14.88,11.51,−0.10,9.09,"CCN1CCN(Cc2ccc(Nc3ncc(F)c(-c4cc(F)c5nc(C)n(C(C)C)c5c4)n3)nc2)CC1 [ABE, abemaciclib]",102.65–1381 [25] ng/mL,"Plasma Concentration ([1]; patient 1, ABE 300 mg daily, continuous, before next dose): 0.42579 µg/mL; Minimal threshold concentration for efficacy [4]: 200 ng/mL"
6.35,−1.65,−7.90,−3.08,14.97,1.86,2.81,12.29,14.95,13.69,−4.37,3.08,"CC(=O)c1c(C)c2cnc(Nc3ccc(N4CCNCC4)cn3)nc2n(C2CCCC2)c1=O [PAL, palbociclib]",72.8–185.5 [26] ng/mL,"concentration at 27 day ([1]; human, plasma, patient 8, PAL 125 mg daily): 0.00755 µg/mL; Plasma Concentration (ng/mL) ([1]; patient 9, PAL 125 mg daily, sampling day 28 (off-treatment week)): <LOQ; Plasma Concentration (ng/mL) ([1]; patient 10, PAL 125 mg daily, sampling day 23 (off-treatment week)): <LOD"
11.10,−1.66,−4.69,−10.69,7.88,1.69,6.00,13.89,−6.47,8.95,4.96,6.01,"CN(C)C(=O)c1cc2cnc(Nc3ccc(N4CCNCC4)cn3)nc2n1C1CCCC1 [RIB, ribociclib]",711–3500 [24] ng/mL,"concentration at 24 day ([1]; human, plasma, oral, patient 2, RIB 600 mg daily, sampling day 24 of cycle (off-treatment week)): 0.0574 µg/mL; concentration at 16 day ([1]; human, plasma, oral, patient 3, RIB 600 mg daily, sampling day 16 (trough, steady state)): 0.682 µg/mL; concentration at 1 h ([1]; human, plasma, oral, RIB 600 mg daily, sampling day 1, 1 h after dose administration): 1.52 µg/mL; concentration at 12 day ([1]; human, plasma, oral, patient 5, RIB 600 mg daily, sampling day 12 (trough, steady state)): 1.19 µg/mL; concentration at 28 day ([1]; human, plasma, oral, patient 6, RIB 600 mg daily, sampling day 28 (off-treatment week)): 0.0272 µg/mL; concentration at 27 day ([1]; human, plasma, oral, patient 7, RIB 600 mg daily): 0.0407 µg/mL; Elimination constant ([5]; non-compartmental analysis, PK solver): 0.022 h⁻¹; Cmax ([5]; human, first day of treatment cycle, plasma, read-out: Maximum concentration (Cmax)): 1.83 µg/mL; half-life ([5]; human, plasma, non-compartmental analysis, PK solver, read-out: Elimination half-life (converted)): 31.6 h; concentration at 0 h ([5]; human, plasma, t 0.00 h, read-out: CRIB (ng/mL) plasma concentration): 945 ng/mL; concentration at 0.25 h ([5]; human, plasma, t 0.25 h, read-out: CRIB (ng/mL) plasma concentration): 1050 ng/mL; concentration at 0.5 h ([5]; human, plasma, t 0.50 h, read-out: CRIB (ng/mL) plasma concentration): 1240 ng/mL; concentration at 1 h ([5]; human, plasma, t 1.00 h, read-out: CRIB (ng/mL) plasma concentration): 1520 ng/mL; concentration at 3 h ([5]; human, plasma, t 3.00 h, read-out: CRIB (ng/mL) plasma concentration): 1830 ng/mL; concentration at 6 h ([5]; human, plasma, t 6.00 h, read-out: CRIB (ng/mL) plasma concentration): 1710 ng/mL; concentration at 12 h ([5]; human, plasma, t 12.00 h, read-out: CRIB (ng/mL) plasma concentration): 1500 ng/mL"
2.23,4.49,−7.51,−1.62,−14.59,−13.24,−8.90,−5.01,−8.06,7.38,2.32,−9.36,"C[C@]12CC[C@@H]3c4ccc(O)cc4C[C@@H](CCCCCCCCC[S+]([O-])CCCC(F)(F)C(F)(F)F)[C@H]3[C@@H]1CC[C@@H]2O (stereo partly drawn) [FUL, fulvestrant]",16–25 [29] ng/mL,"Plasma Concentration ([1]; patient 7, FUL 500 mg monthly, intramuscular): 0.02073 µg/mL; Plasma Concentration ([1]; patient 8, FUL 500 mg monthly, intramuscular): 0.02269 µg/mL; Plasma Concentration ([1]; patient 9, FUL 500 mg monthly, intramuscular): 0.02213 µg/mL; Plasma Concentration ([1]; patient 10, FUL 500 mg monthly, intramuscular): 0.02456 µg/mL"
6.65,8.39,−0.69,−0.40,−7.88,−2.80,−3.98,3.09,4.89,2.27,−0.62,−10.33,"CC(C)(C#N)c1cc(Cn2cncn2)cc(C(C)(C)C#N)c1 [ANA, anastrozole]",22–52.6 [27] ng/mL,"Plasma Concentration ([1]; patient 5, ANA 1 mg daily): 0.04396 µg/mL"
